Earlier results in patent EP4219603A1, “A METHOD FOR PURIFICATION OF ORGANIC WATER-SOLUBLE POLYMERS FROM HYDROPHOBIC CONTAMINANTS” (Ustav experimentálnej fyziky SAV, v.v.i., priority 2022, dated 2023).
Where two headings read alike, the source gives them in different places.

Settings: logarithm of the octanol/water partition coefficient
[1] = contaminants from Examples 1 to 9 identified in GC-MS HS-SPME elugrams
[2] = model contaminants added to the polymer

CCCCC(CC)COC(=O)c1ccccc1 (stereo not drawn) [2-ethylhexyl benzoate]
log P [1]: 5.73

CCCCCCCCCCCC(C)=O [2-tridecanone]
log P [1]: 5.16

c1ccc(-c2ccccc2)cc1 [bifenyl]
log P [1]: 4.00

CC(C)c1ccc2c(c1)CC[C@H]1[C@](C)(CO)CCC[C@]21C [dehydroabietol]
log P [1]: 6.35

CC(C)COC(=O)c1ccccc1C(=O)OCC(C)C [di-isobutyl phtalate]
log P [1]: 4.46

Clc1cc(Cl)cc(-c2ccccc2)c1 [dichlorobiphenyl (PCB 14)]
log P [1]: 5.41
log P [2]: 5.41

CCCCCCCCCCCC [dodecane]
log P [1]: 7.13

C[C@]12CC[C@H]3C(=CCc4cc(OC(=O)c5ccccc5)ccc43)[C@@H]1CCC2=O [equilin benzoate]
log P [1]: 5.63

CCCCCCCCCCCC(=O)OCC [ethyl dodecanoate]
log P [1]: 6.00
log P [2]: 6.00

CCCCCCCCCCCCCCCC [hexadecane]
log P [1]: 9.26

CCCCCCCCCCCC(=O)OC(C)C [isopropyl dodecanoate]
log P [1]: 6.37

CCCCCCCCCCCCCC(=O)OC(C)C [isopropyl tetradecanoate]
log P [1]: 7.43

CCCCCCCCCCCCCCCCCC [octadecane]
log P [1]: 10.32
log P [2]: 10.32

CCCCCCCCCCCCCC [tetradecane]
log P [1]: 8.19

CCCCCCCCCCCCC [tridecane]
log P [1]: 7.66
